Data from patent US20220202897A1, “USE OF CYCLO(HIS-PRO) (CHP) FOR PREVENTING, AMELIORATING, OR TREATING FIBROSIS” (NOVMETAPHARMA CO., LTD., priority 2019, published 2022).

Assays:
[1] = tested on: human-derived proximal tubular epithelial cells; experiment: Cytological morphology after CHP treatment in a human-derived proximal tubular epithelial cell fibrosis model (TGFβ-induced); format: cell-based; settings: recombinant TGFβ 2 ng/ml; CHP 4, 20 and 100 μg/ml; FIG. 2
[2] = tested on: human-derived proximal tubular epithelial cells; experiment: Western blot of E-cadherin, fibronectin and pSTAT3 proteins in the human-derived proximal tubular epithelial cell fibrosis model; format: cell-based; settings: TGFβ 2 ng/ml, CHP 4, 20 and 100 μg/ml, FIG. 3
Excerpt: Under the same conditions as in Example 1-2, the expression levels of proteins of E-cadherin, a junction marker, fibronectin, a fibrosis marker, and pSTAT3, a fibrosis transcription factor, after CHP administration were checked by Western blot.

[3] = tested on: human-derived glomerular endothelial cells; experiment: Cytological morphology after CHP treatment in a human-derived glomerular endothelial cell fibrosis model (rTGFβ-induced); format: cell-based; settings: rTGFβ 2 ng/ml; CHP 40 and 100 μg/ml; FIG. 4
Huh7 liver cell line = experiment: Fibronectin protein expression (Western blot) in a human-derived hepatocyte fibrosis model; format: cell-based; settings: Huh7 cells; TGFβ 2 ng/ml with CHP 250 ng/ml; 48 hours; corrected by GAPDH; FIG. 5
Method: (§1) DMEM medium and FBS were purchased from Hyclone for culturing the Huh7 liver cell line, and TGFβ for inducing fibrosis was purchased from R&D Systems. The cells were cultured in a DMEM medium supplemented with 10% FBS in a 5% CO2 incubator at 37° C., treated with TGFβ at a concentration of 2 ng/ml and treated with CHP at 0, 62.5, 125, or 250 ng/ml, and cells were harvested at 48 hours of treatment.
RIPA lysis buffer and Halt™ protease and phosphatase inhibitor cocktails was purchased from Thermo to analyze the expression of fibronectin protein, a fibrotic protein, and for protein quantification, BCA protein quantification kit was purchased from Thermo. […] The supernatant was collected, and the protein concentration was measured by BCA quantitation, and the protein was separated from the same amount of samples using the Bolt™ protein gel electrophoresis system, and transferred to a nitrocellulose membrane. […] After washing 3 times for 10 minutes with TBST, the expression level was measured by reacting with ECL. The size of the appearing band was quantified using the ImageJ program and corrected by dividing the fibronectin band size value by the GAPDH band size value. Statistical significance was analyzed using Student's t-test statistical method with the control group. #p<0.05 (negative control group: TGFβ treated control group).

[4] = tested on: animal model of liver fibrosis; experiment: Fibronectin protein expression (Western blot) in liver tissue of a high-fat-diet animal model of liver fibrosis; format: in vivo, C57BL/6 mice; settings: 60% fat high-fat diet mice; CHP 5 or 35 mg/kg orally once a day for 16 weeks; vs HFD control; effect stronger according to the concentration; FIG. 6
Method: (§2) For liver fibrosis experiments in animals, 12-week-old C57BL/6 mice fed a high-fat diet containing 60% fat for 6 weeks were purchased from Jackson, USA, and Research diets D12492, a 60% fat-containing high-fat dietary feed purchased from Saeron Bio, were ingested for 17 weeks. Mice were bred to allow free access to feed and water in an environment of 24±3° C. C57BL/6 mice fed a high-fat diet for 6 weeks were acclimatized to the breeding environment for 1 week, and their weights were measured and evenly divided into 3 groups as shown in Table 1. CHP was orally administered to each group at a concentration of 5 mg/kg or 35 mg/kg once a day for 16 weeks, and the same amount of distilled water was orally administered to the control group in the same manner.
Isoflurane required for anesthesia and dissection of mice was purchased from Hana Pharmaceutical, and Vetequip's RC2 Rodent Circuit Controller Anesthesia System was prepared. Phosphate buffered saline (PBS) was purchased from Hyclone. To isolate the mouse liver tissue, the mice were anesthetized by respiratory anesthesia with 3-3.5% isoflurane. After blood was drawn from the heart of anesthetized mice, the liver tissue was immediately excised and washed with PBS. […] Statistical significance was analyzed using the Student's t-test statistical method with HFD control group (*p<0.05, **p<0.01).

L-132 lung cell line = experiment: Fibronectin protein expression (Western blot) in a human-derived lung cell fibrosis model; format: cell-based; settings: L-132 cells; TGFβ 2 ng/ml with CHP 125 ng/ml; 48 hours; p<0.01 vs TGFβ-treated control; FIG. 7
Method: as §1, with “MEM” for “DMEM”, “L-132 lung” for “Huh7 liver”, “62.5,” for “62.5, 125,”, “125” for “250”
(§3) Western blotting was performed in the same manner as in Example 3-2 to analyze the expression of fibronectin protein, a fibrotic protein. Statistical significance was analyzed using Student's t-test statistical method with the control (#p<0.05 (negative control group: TGFβ-treated control group), **p<0.01 (TGFβ-treated control group: CHP 125 ng/ml-treated group)).

[5] = tested on: animal model of pulmonary fibrosis; experiment: TGFβ and Collagen 3 gene expression (real-time PCR) in lung tissue of a high-fat-diet animal model of pulmonary fibrosis; format: in vivo, C57BL/6 mice; settings: high-fat diet mice; CHP 5 and 35 mg/kg orally once a day for 16 weeks; corrected by GAPDH; FIG. 8
[6] = tested on: HS68 skin fibroblast-derived cell line; experiment: Fibronectin protein expression (Western blot) in a human-derived skin cell fibrosis model; format: cell-based; settings: HS68 cells; TGFβ 2 ng/ml with CHP 500 ng/ml; 48 hours; p<0.05 vs TGFβ-treated control; FIG. 9
Method: as §1, with “HS68 skin fibroblast-derived” for “Huh7 liver”, “125, 250,” for “125,”, “500” for “250”
as §3, with “*p<0.05” for “**p<0.01”, “500” for “125”

[7] = tested on: animal model of cardiac fibrosis; experiment: Fibrosis marker gene expression (real-time PCR) in heart tissue of a high-fat-diet animal model of cardiac fibrosis; format: in vivo, C57BL/6 mice; settings: high-fat diet mice; CHP 5 and 35 mg/kg orally once a day for 16 weeks; corrected by β-actin; no further decrease with concentration; FIG. 10
Method: as §2
For cardiac fibrosis experiments in animals, an animal model of cardiac fibrosis was established in the same manner as in Example 4-1.
Isoflurane required for anesthesia and dissection of mice was purchased from Hana Pharmaceutical, and Vetequip's RC2 Rodent Circuit Controller Anesthesia System was prepared. Phosphate buffered saline (PBS) was purchased from Hyclone. To isolate the mouse heart tissue, the mice were anesthetized by respiratory anesthesia with 3-3.5% isoflurane. After blood was drawn from the heart of the anesthetized mice, the heart tissue was immediately excised, 50 mg of the heart was cut out, and RNA extraction and gene expression analysis were performed in the same manner as in Example 6-2. The expression value of each gene was corrected by dividing by the expression value of (β-actin, a housekeeping gene.
Statistical significance was analyzed using one-way ANOVA statistical analysis, and the Dunnett post hoc test was used to compare the significance with the HFD control group (*p<0.05, **p<0.01, ****p<0.0001).

[8] = tested on: animal model of fat fibrosis; experiment: Fibrosis marker gene expression (real-time PCR) in epididymal adipose tissue of a high-fat-diet animal model of fat fibrosis; format: in vivo, C57BL/6 mice; settings: high-fat diet mice; CHP 5 and 35 mg/kg orally once a day for 16 weeks; corrected by GAPDH; FIG. 11
Method: as §2
For fat fibrosis experiments in animals, an animal model of fat fibrosis was established in the same manner as in Example 4-1.
Isoflurane required for anesthesia and dissection of mice was purchased from Hana Pharmaceutical, and Vetequip's RC2 Rodent Circuit Controller Anesthesia System was prepared. Phosphate buffered saline (PBS) was purchased from Hyclone. To isolate the mouse adipose tissue, the mice were anesthetized by respiratory anesthesia with 3-3.5% isoflurane. After blood was drawn from the heart of the anesthetized mice, the epididymal adipose tissue (EAT) was immediately excised, 100 mg of the fat was cut out, and RNA extraction and gene expression analysis were performed in the same manner as in Example 6-2. The expression value of each gene was corrected by dividing by the expression value of GAPDH, a housekeeping gene.
Statistical significance was analyzed using one-way ANOVA statistical analysis, and the Dunnett post hoc test was used to compare the significance with the control group (*p<0.05, **p<0.01).

## O=C1N[C@@H](Cc2cnc[nH]2)C(=O)N2CCC[C@@H]12 [CHP, Cyclo-HisPro]
[1]
  cytomorphological fibrosis (cytoskeletal remodeling and morphological changes): fibrosis was improved
[2]
  protein expression of E-cadherin (junction marker): restored
  protein expression of fibronectin (fibrosis marker): decreased
  protein expression of pSTAT3 (fibrosis transcription factor): decreased
[3]
  cytomorphological fibrosis (cytoskeletal remodeling and morphological changes): fibrosis was improved
Huh7 liver cell line
  expression level of fibronectin protein: showed a tendency to decrease
[4]
  expression level of fibronectin protein in liver tissue: significantly decreased
L-132 lung cell line
  expression level of fibronectin protein: significantly decreased
[5]
  expression of Collagen 3 gene in lung: decreased more significantly according to the CHP administration concentration
  expression of TGFβ gene in lung: decreased more significantly according to the CHP administration concentration
[6]
  expression level of fibronectin protein: significantly decreased
[7]
  expression of Collagen 1 gene in heart: significantly reduced
  expression of Collagen 3 gene in heart: significantly reduced
  expression of Collagen 4 gene in heart: significantly reduced
  expression of Fibronectin gene in heart: significantly reduced
  expression of TGFβ gene in heart: significantly reduced
[8]
  expression of CTGF gene in fat (epididymal adipose tissue): markedly reduced
  expression of Collagen 3 gene in fat (epididymal adipose tissue): markedly reduced
  expression of Fibronectin gene in fat (epididymal adipose tissue): markedly reduced
  expression of TGFβ gene in fat (epididymal adipose tissue): markedly reduced
